These results are taken from ChEMBL document CHEMBL1139568, “Carbonic anhydrase inhibitors. Inhibition of cytosolic/tumor-associated carbonic anhydrase isozymes I, II, IX, and XII with Schiff's bases incorporating chromone and aromatic sulfonamide moieties, and their zinc complexes” (Bioorg Med Chem Lett, 2005).

Targets include Carbonic anhydrase 9 (Homo sapiens, UniProt Q16790); Carbonic anhydrase 2 (Homo sapiens, UniProt P00918); Carbonic anhydrase 1 (Homo sapiens, UniProt P00915); Carbonic anhydrase 12 (Homo sapiens, UniProt O43570).
The mark [1] stands for this setting: tested as the Zn salt or complex.

Sequence of Carbonic anhydrase 12 (O43570 whole entry): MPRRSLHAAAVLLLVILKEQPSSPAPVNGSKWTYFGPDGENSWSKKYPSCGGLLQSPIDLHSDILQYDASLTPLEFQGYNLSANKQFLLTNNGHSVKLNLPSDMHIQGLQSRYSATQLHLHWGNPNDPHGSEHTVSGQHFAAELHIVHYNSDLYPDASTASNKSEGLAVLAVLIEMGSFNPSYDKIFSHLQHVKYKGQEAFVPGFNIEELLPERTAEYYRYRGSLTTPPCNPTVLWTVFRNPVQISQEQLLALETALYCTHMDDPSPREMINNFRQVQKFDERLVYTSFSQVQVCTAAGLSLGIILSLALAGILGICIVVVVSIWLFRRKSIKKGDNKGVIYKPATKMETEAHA
Sequence of Carbonic anhydrase 1 (P00915 whole entry): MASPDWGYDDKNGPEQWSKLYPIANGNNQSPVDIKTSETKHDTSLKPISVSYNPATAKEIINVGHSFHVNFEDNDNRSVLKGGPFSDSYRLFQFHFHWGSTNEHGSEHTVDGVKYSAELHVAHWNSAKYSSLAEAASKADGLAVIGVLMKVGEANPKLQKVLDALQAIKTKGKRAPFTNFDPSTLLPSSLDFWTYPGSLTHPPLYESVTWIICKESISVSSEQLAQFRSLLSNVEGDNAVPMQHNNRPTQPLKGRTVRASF
Description for Carbonic anhydrase 12: Inhibition constant against human carbonic anhydrase XII
Description for Carbonic anhydrase 2: Inhibition constant against human carbonic anhydrase II
Description for Carbonic anhydrase 9: Inhibition constant against human carbonic anhydrase IX

The term Ki denotes the equilibrium dissociation constant of an inhibitor or competing ligand from its target. On to `Cc1ccc2occ(/C=N/c3ccc(S(=O)(=O)N=C(N)N)cc3)c(=O)c2c1`, for which the Ki at Carbonic anhydrase 9, at Carbonic anhydrase 2, at Carbonic anhydrase 1 and at Carbonic anhydrase 12 was greater than 1000 nM throughout.
`Cc1ccc2occ(/C=N/c3cc(C(F)(F)F)c(S(N)(=O)=O)cc3S(N)(=O)=O)c(=O)c2c1` showed a Ki on Carbonic anhydrase 9 of 32 nM.
As to `Cc1ccc2occ(/C=N/CCc3ccc(S(N)(=O)=O)cc3)c(=O)c2c1` [listing 1 of 2 here], affinity on Carbonic anhydrase 9 was put at a Ki of 37 nM.
Take `NS(=O)(=O)c1ccc(C/N=C/c2coc3ccccc3c2=O)cc1`: the Ki on Carbonic anhydrase 9 was found to be 32 nM.
As for `Cc1ccc2occ(/C=N/c3ccc(S(N)(=O)=O)cc3)c(=O)c2c1` [listing 1 of 2 here], the Ki on Carbonic anhydrase 9 (setting [1]) was 6.8 nM.
For the compound `Cc1ccc2occ(/C=N/CCc3ccc(S(N)(=O)=O)cc3)c(=O)c2c1` [listing 2 of 2 here], the Ki at Carbonic anhydrase 9 (setting [1]) is 8.2 nM.
Still for that read-out and setting: for `NS(=O)(=O)c1ccc(NCc2coc3ccccc3c2=O)cc1` the value was 10 nM.
Consider `NS(=O)(=O)c1ccc(CNCc2coc3ccccc3c2=O)cc1`, for which the Ki at Carbonic anhydrase 9 (setting [1]) is 8.1 nM.
On the same count and under the same terms, the figure for `NS(=O)(=O)c1ccc(CCNCc2coc3ccccc3c2=O)cc1` is 7.3 nM; for `Cc1ccc2occ(CNc3ccc(S(N)(=O)=O)cc3)c(=O)c2c1` it is 15 nM.
For the compound `Cc1ccc2occ(CNCc3ccc(S(N)(=O)=O)cc3)c(=O)c2c1`, the Ki at Carbonic anhydrase 9 (setting [1]) came to 14 nM.
The same measure, in the same setting: the figure for `Cc1ccc2occ(CNCCc3ccc(S(N)(=O)=O)cc3)c(=O)c2c1` is 12 nM.
As to `N=C(N)NS(=O)(=O)c1ccc(/N=C/c2coc3ccccc3c2=O)cc1`, the inhibitory constant (Ki) at Carbonic anhydrase 9, on Carbonic anhydrase 2, on Carbonic anhydrase 1 and on Carbonic anhydrase 12 was greater than 1000 nM in each case.
Consider `NS(=O)(=O)c1ccc(CC/N=C/c2coc3ccccc3c2=O)cc1`, for which, on Carbonic anhydrase 9, the inhibition constant (Ki) worked out at 26 nM.
On the same count and under the same terms, for `Cc1ccc2occ(/C=N/c3ccc(S(N)(=O)=O)cc3)c(=O)c2c1` [listing 2 of 2 here] the value was 48 nM.
On to `NS(=O)(=O)c1ccc(C/N=C/c2coc3ccccc3c2=O)cc1` (stereo in doubt; 20), for which the inhibition constant Ki at Carbonic anhydrase 9 (setting [1]) is greater than 1000 nM.
The same measure, in the same setting: the figure for `NS(=O)(=O)c1ccc(C/N=C/c2coc3ccccc3c2=O)cc1` (stereo in doubt; 21) is 6.3 nM.
